Reference: ChEMBL document CHEMBL3507680, “University of Dundee, Gates Library screen for HepG2 cell viability”

assay: Human HepG2 cell viability assay in 384 well format; type: toxicity, cell-based; design: dose 125 nL, time 70.5 hour; concentration not given beside the values; details: HepG2 cells, read-out: Inhibition

Compared with `C[C@@H]1CN(C(=O)CCCN2CCOCC2)CC[C@@]1(O)C1CCC1`, `Cc1noc([C@@H]2CCCN2C(=O)C2CCN(C(=O)C3CCC3)CC2)n1` is higher in cytotoxicity at 70.5 h: -3.73% for the first, 10.6% for the second.

First: Cc1nn(C)c2nc(N(C)CCN(C)C)sc12
Second: CCC(C)C(=O)Nc1ccc2oc(=O)n(CCN(C)C)c2c1 (configuration not stated)
The cytotoxicity at 70.5 h of the first is lower: -9.29% for the first, -1.79% for the second.

Going from `NC(=O)Cn1c(SCc2noc(-c3ccsc3)n2)nnc1C1CC1` to `Cc1cccc(-c2nc(CNC3CCc4nc(C)nn4C3)no2)c1` (configuration not stated), the cytotoxicity at 70.5 h falls from -1.96% to -3.36%.

First: Clc1ccccc1CNC(Cn1cncn1)c1ccccc1 (configuration not stated)
Second: CSc1ccccc1C(=O)N(C)C1CCCN(CCc2ccccc2)C1 (configuration not stated)
The cytotoxicity at 70.5 h of the first is higher: 14.7% for the first, -5.22% for the second.

First: CCn1c(C)nnc1CN(C)C1CCN(CCCSC)C1 (configuration not stated)
Second: CNc1ncc(C(=O)N[C@H]2CN(CCCSC)C[C@@H]2C2CC2)cn1
The cytotoxicity at 70.5 h of the first is higher: 26.5% for the first, -5.85% for the second.

Compared with `c1cnc(NCc2n[nH]c3c2CCN(Cc2ccncc2)C3)nc1`, `NCc1ccc(N2CCN(c3ncccn3)CC2)c(F)c1` is higher in cytotoxicity at 70.5 h: -6.35% for the first, 6.72% for the second.

Going from `Cc1cccc(-n2nc(CC(C)C)nc2CCCC(N)=O)c1` to `CCCc1noc(CCC(=O)N2CCCC2c2ccncc2)n1` (configuration not stated), the cytotoxicity at 70.5 h rises from -6.23% to -5.95%.

First: CC(C)N1[C@H](Cn2cccn2)C[C@@H]2CN(C3CCOCC3)CC[C@@H]21
Second: c1cnn(CC2CN(Cc3nc(C4CC4)no3)CCO2)c1 (configuration not stated)
The cytotoxicity at 70.5 h of the first is lower: -1.14% for the first, 19.7% for the second.

Compared with `Cc1cccnc1CN1CCN(c2noc(-c3ccccc3)n2)CC1`, `COc1ccc(-c2nc(CN3CCCC3Cn3cccn3)no2)cc1` (configuration not stated) is lower in cytotoxicity at 70.5 h: 7.94% for the first, -0.173% for the second.

First: CN(CCCOc1ccccc1)Cc1nccn1C
Second: Cc1ccc(-c2nn(-c3cccc(F)c3)cc2CN(C)CCO)o1
The cytotoxicity at 70.5 h of the first is higher: -4.56% for the first, -4.83% for the second.

First: CC(C)NC(=O)[C@@H](NC(=O)N1CCN(c2ccc(Cl)cc2)CC1)C(C)C
Second: CN1CCN(C(=O)c2cc3sccc3n2Cc2ccc(Cl)cc2)CC1
The cytotoxicity at 70.5 h of the first is higher: 6.91% for the first, -5.06% for the second.

Compared with `CCOCc1cccc(S(=O)(=O)Nc2ccn(CC)n2)c1`, `NC(=O)Cn1ccc(NC(=O)C2(c3cccc(Cl)c3)CC2)n1` is lower in cytotoxicity at 70.5 h: -0.0962% for the first, -7.03% for the second.

Compared with `Cc1nc(NCC2CC2)nc2c1COCC21CCNC1` (configuration not stated), `Cn1nnc2c1CCN(S(C)(=O)=O)C2COCC1CC1` (configuration not stated) is lower in cytotoxicity at 70.5 h: 5.46% for the first, 0.405% for the second.

First: CCCc1nnsc1C(=O)NCC1CCN(S(C)(=O)=O)CC1
Second: CS(=O)(=O)N1CCC(CNc2c(Cl)cccc2C#N)CC1
The cytotoxicity at 70.5 h of the first is lower: -4% for the first, -1.91% for the second.

Compared with `NC(=O)N1CC[C@H](O)[C@@H]1Cc1ccccc1`, `Cc1cc(NC(=O)NCC2COc3ccccc3C2)no1` (configuration not stated) is higher in cytotoxicity at 70.5 h: -8.95% for the first, 52% for the second.

Compared with `Nc1nc(N2CCCC(COc3ccc(F)cc3)C2)c2nc[nH]c2n1` (configuration not stated), `Cc1nc(CN2CCCC(NCCc3ccccc3Cl)C2)no1` (configuration not stated) is higher in cytotoxicity at 70.5 h: -7.35% for the first, -6.15% for the second.

First: Cc1ccc(-c2cc(CNCCn3cc(C)cn3)on2)cc1
Second: Cn1ccc(C(=O)Nc2nc(-c3ccc4c(c3)CCO4)cs2)cc1=O
The cytotoxicity at 70.5 h of the first is higher: -1.34% for the first, -6.04% for the second.

Compared with `CC(OCC(F)(F)F)C(=O)Nc1ccc(-n2cncn2)nc1` (configuration not stated), `CCNC(=O)C(C)NC(=O)Nc1ccccc1SC(F)(F)F` (configuration not stated) is higher in cytotoxicity at 70.5 h: -12.6% for the first, -10.8% for the second.

Compared with `COCCNc1cc(-c2cccc(C(=O)O)c2C)c2cc[nH]c2n1`, `Cc1nc(Nc2ccc(Cl)cn2)sc1C(=O)NC(C)C` is higher in cytotoxicity at 70.5 h: -11.2% for the first, 7.41% for the second.

Compared with `Cc1cc(C2CCN(S(=O)(=O)N(C)C)CC2)ccn1`, `CN1CCCC1c1ccnc(C(=O)N(C)C2CCCCC2)c1` (configuration not stated) is lower in cytotoxicity at 70.5 h: 12.7% for the first, -11.9% for the second.

Going from `CC(C)CC(O)C1CCN(C(=O)c2ccc(C(C)C)[nH]c2=O)CC1` (configuration not stated) to `Cc1nc(C)n(C2CCCN(C(=O)Cc3csc(C(C)C)n3)C2)n1` (configuration not stated), the cytotoxicity at 70.5 h falls from 18.9% to -3.36%.

First: O=C(CC1CCCC1)N1CC[C@H]2[C@H]1CCN2c1nncs1
Second: Cc1nn(C)c(Cl)c1C1CCCN1CC(=O)N1CCCCC1 (configuration not stated)
The cytotoxicity at 70.5 h of the first is lower: 19.9% for the first, 26.9% for the second.

Going from `O=C(Nc1ccc(F)cc1)C1CNCCN1C(=O)CSc1ccncc1` (configuration not stated) to `CNC(=O)NC(=O)CN1CCc2c(Br)ccc(F)c2C1`, the cytotoxicity at 70.5 h falls from 28.9% to -0.281%.

Compared with `COc1ccc(CNC(Cc2ccsc2)c2ncccc2C)cc1OC` (configuration not stated), `COC(=O)c1ccc(Cn2cccc(C(F)(F)F)c2=O)c(OC)c1` is higher in cytotoxicity at 70.5 h: -4.5% for the first, 21.6% for the second.

Going from `Cc1noc(C)c1CN1CC[C@H]2C[C@H](c3nccs3)O[C@@H]2C1` to `CCc1cc(C(=O)N2CCCC2c2nc(O)cc(CC)n2)on1` (configuration not stated), the cytotoxicity at 70.5 h rises from -9.22% to -1.1%.

Compared with `CC(C)CC(C#N)NC(=O)COC1CCCCC1` (configuration not stated), `Cc1occc1-c1nc(NC2CCCC2)ncc1-c1ccccn1` is higher in cytotoxicity at 70.5 h: -8.86% for the first, 1.09% for the second.

Going from `CC(C(=O)NCc1ccnc(N2CCN(C)CC2)c1)n1cccn1` (configuration not stated) to `CC1(c2[nH]ncc2C(N)=O)CCN(c2ncccn2)CC1`, the cytotoxicity at 70.5 h rises from -5.91% to 17.1%.

Compared with `CCc1nc(C2CCCN2C(=O)CCc2nc(C(C)(C)C)no2)no1` (configuration not stated), `CCCc1nc(C)cc(NCCc2nnc(N)s2)n1` is lower in cytotoxicity at 70.5 h: 15.3% for the first, -12.9% for the second.

`Cc1sc2c(C3CCCNC3)nc(Nc3cccc(F)c3)n2c1C` (configuration not stated) gave a cytotoxicity at 70.5 h of -5.08%.
